Like-named read-outs stand apart in the source and are kept apart here.

Usually logP stands for a log measure of how a compound divides between an organic and an aqueous phase. Low readings indicate a more hydrophilic compound, high ones a more lipophilic compound.

The nature of this series: water-octanol partition coefficient (log P), OECD Test Guideline 107. In kind it is physicochemical. On the procedure: The water-octanol partition coefficient, or log P value, is a value defined by OECD Test Guideline 107. […] The constituents shown in Table 1 were as below, and the log P values in Table 1 were determined in accordance with OECD Test Guideline 107. • (1) First solvents

[1] abbreviates: octanol/water, OECD Test Guideline 107.

For the molecule `CCC(O)CO` (stereo not shown) [1,2-butanediol], the logP (OECD Test Guideline 107) was -0.34. `CCCCCC(O)CO` (stereo not shown) [1,2-heptanediol]: the logP under setting [1] was determined as 1. As to `CCCCC(O)CO` (stereo not shown) [1,2-hexanediol], the logP under setting [1] amounted to 0.7. As to `OCC(CO)(CO)COc1ccccc1` [2-hydroxymethyl-2-phenoxymethyl-1,3-propanediol], the logP under setting [1] came out at 1.69.

The molecule `CC(O)(CO)COc1ccccc1` (stereo not shown) [2-methyl-3-phenoxy-1,2-propanediol] had a logP under setting [1] of 1.1. Molecule `CC(C)(C)C(O)CO` (stereo not shown) [3,3-dimethylbutane-1,2-diol] gave a logP under setting [1] of -0.11. Take `Cc1cccc(OCC(O)CO)c1` (stereo not shown) [3-(3-methylphenoxy)-1,2-propanediol]: under setting [1], the logP came out at 1.21. Under setting [1], `COc1ccc(COCC(O)CO)cc1` (stereo not shown) [3-(4-methoxybenzyloxy)-1,2-propanediol] gave a logP of 0.8.

With `OCC(O)COCc1ccccc1` (stereo not shown) [3-benzyloxy-1,2-propanediol], under setting [1], the logP worked out at 0.88. On to `COCCOCCOCCOCCO` [Methyl tetraglycol, reference compound], for which the “log P (water-octanol partition coefficient)” value (“log P” for short) (OECD Test Guideline 107) was −1.87. Turning to `CCCCOCCOCCO` [butyl diglycol], the “log P” value amounted to 0.56. Take `OCC(O)COc1ccccc1` (stereo not shown) [phenyl glyceryl ether]: under setting [1], the logP turned out to be 0.75.

For dipropylene glycol monomethyl ether, the “log P” value (OECD Test Guideline 107) is on record as −0.46.

The values above are taken from patent US20170009093A1, “LIQUID COMPOSITION, PIGMENT DISPERSION LIQUID, AND INK JET RECORDING AQUEOUS INK COMPOSITION” (Seiko Epson Corporation, priority 2015, published 2017).
